Earlier results in patent publication US12404524B2, “Expression vector” (priority 2019, dated 2025).

Tested on: common Streptomyces expression strains
Settings: inducers of Potr and PnitA in single-gene expression experiments

| Structure (SMILES) | effect on physiology or growth rate |
| --- | --- |
| CN(C)[C@@H]1C(O)=C(C(N)=O)C(=O)[C@@]2(O)C(O)=C3C(=O)c4c(O)cccc4[C@@](C)(O)[C@H]3[C@H](O)[C@@H]12 [oxytetracycline] | no effect |
| O=C1CCCCCN1 [ε-caprolactam] | no effect |
